Values quoted from earlier work in patent US20040213782A1, “Compositions of an aquaporin modulating agent and an aqueous humor modulating agent for the treatment of elevated intraocular pressure” (Pharmacia Corporation, priority 2003, published 2004).

Experiments:
[1] = test system: AQP1; settings: epididymis of rats; Yu et al. (2002)
[2] = among corticosteroids; ophthalmic or systemic administration
[3] = test system: AQP2; settings: kidney of cardiomyopathic hamsters; Wong and Tsui (2002)

In the case of `CC(=O)Nc1nnc(S(N)(=O)=O)s1` [acetazolamide], the “level of AQP1 expression” value [1] is given as “significant decrease”.
In the case of `C[C@@H]1C[C@H]2[C@@H]3CCC4=CC(=O)C=C[C@]4(C)[C@@]3(F)[C@@H](O)C[C@]2(C)[C@@]1(O)C(=O)CO` [dexamethasone], the “increase in intraocular pressure” value [2] is listed as “most pronounced increase”.
For `CCOC(=O)[C@H](CCc1ccccc1)N[C@@H](C)C(=O)N1CCC[C@H]1C(=O)O` [enalapril], the “expression of AQP2” value [3] is given as “significant decrease”.
In the case of “angiotensin II (DRVYIHPF; Angiotensin-2; UniProt P01019 25-32, looked up) [peptide that increases the expression of AQP2 in the kidney of cardiomyopathic hamsters]”, the “expression of AQP2” value [3] is listed as “increases”.
